{
  "source": "patent US20020071842A1",
  "about": "“Soluble CD1 compositions and uses thereof” (priority 2000, published 2002)",
  "test_system": "human CD1d-restricted T cell clones",
  "assay": "Flow cytometric staining with lipid treated multimerized CD1d-Fc aggregates",
  "format": "cell-based",
  "details": "flow cytometry, human CD1d-Fc/Alexa 488 protein A aggregate, 40:1 lipid to fusion protein, compared with DMSO alone",
  "experimental": "To facilitate binding to CD1 specific T cells for detection by flow cytometry, a highly multimerized form of the CD1d fusion protein was formed using fluorescently labeled protein A molecules. Protein A molecules spontaneously associate in solution at neutral pH with immunoglobulin Fc regions, forming complexes containing four Fc molecules and two protein A molecules (4+2 complexes, reference 2). The human CD1d-Fc fusion protein was incubated with Alexa 488 dye labeled protein A, and the 4+2 complexes purified by size exclusion chromatography on a Pharmacia Superose 6 column using PBS pH 7.2 as a running buffer. The purified 4+2 aggregates were concentrated to 100 μg/ml with ovalbumin as a carrier protein. The CD1d-Fc aggregate was then pre-incubated for 24 to 48 hours at 37° C. with antigenic glycolipids dissolved in DMSO at a 40:1 molar ratio of lipid to fusion protein, or with an equivalent volume of DMSO alone as a negative control. The T cell staining was performed at room temperature or 4° C. for 20 min, at a concentration of 40 μg/ml of the lipid or control treated CD1d-Fc aggregate.\nTo facilitate binding to CD1 specific T cells for detection by flow cytometry, a highly multimerized form of the CD1d fusion protein is formed using fluorescently labeled protein A molecules. Protein A molecules spontaneously associate in solution at neutral pH with immunoglobulin Fc regions, forming complexes containing four Fc molecules and two protein A molecules (4+2 complexes, Langone, J.J. et al, Molec. and Cell. Biochem, 65(2):159-70 (1985)). The human CD1d-Fc fusion protein was incubated with Alexa 488-dye labeled protein A, and the 4+2 complexes purified by size exclusion chromatography on a Phannacia Superose 6 column using PBS pH 7.2 as a running buffer. The purified 4+2 aggregates are concentrated to 100 μg/ml with ovalbumin as a carrier protein. The CD1d-Fc aggregate is then pre-incubated for 24 to 48 hours at 37° C. with antigenic glycolipids dissolved in DMSO at a 40:1 molar ratio of lipid to fusion protein, or with an equivalent volume of DMSO alone as a negative control. The T cell staining is performed at room temperature or 4° C. for 20 min, at a concentration of 40 μg/ml of the lipid or control treated CD1d-Fc aggregate.\nFlow cytometric analysis of a CD1d-restricted T cell clone stained with the multimerized CD1d-Fc fusion protein (abbreviated as “hd(8)-fl”) was performed as follows. Staining with CD1d-Fc treated with lipid antigens dissolved in DMSO was compared with CD1d-Fc treated with DMSO alone as a negative control. The specific lipid antigen used were: aGalCer is α-galactosyl ceramide (KRN7000); aGlcCer is α-glucosyl ceramide; aManCer is α-mannosyl ceramide; bGalCer is β-galactosyl ceramide; Cer is ceramide (acylphytosphingolipid).\nFlow cytometric analysis of a series of human T cell clones stained with the multimerized CD1d-Fc fusion protein, treated with α-GalCer or DMSO alone also was performed, including staining of two different CD1d-restricted (“NKT”) T cell clones DN2.B9 and DN1.10B3. Four other T cell clones that are not CD1d-restricted also were stained.",
  "data": [
    {"compound": "CCCCCCCCCCCCCCCCCCCCCCCCCC(=O)N[C@@H](CO[C@H]1O[C@H](CO)[C@H](O)[C@H](O)[C@H]1O)[C@H](O)[C@H](O)CCCCCCCCCCCCCC", "note": "[α-GalCer, α-galactosylceramide]", "values": [
      {"measurement": "staining of CD1d-restricted T cell clones by lipid treated CD1d-Fc aggregate", "setting": "listed as aGalCer", "value": "positive staining"}
    ]},
    {"compound": "unglycosylated ceramide", "values": [
      {"measurement": "staining of CD1d-restricted T cell clones by lipid treated CD1d-Fc aggregate", "value": "did not stain above background levels"}
    ]},
    {"compound": "β-galactosylceramide [β-GalCer]", "values": [
      {"measurement": "staining of CD1d-restricted T cell clones by lipid treated CD1d-Fc aggregate", "value": "did not stain above background levels"}
    ]}
  ]
}
